In PubChem BioAssay (NCI):
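GI50 marks 50% less growth. TGI: total growth inhibition.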

Key:
Assay in all cases: inhibition of tumour cell growth, NCI panel, 384-well format
[1] = test system: NCI-H226 lung
[2] = test system: MDA-MB-231 breast
[3] = test system: HL-60(TB) leukemia
[4] = test system: U251 glioblastoma
[5] = test system: UACC-62 melanoma
[6] = test system: RPMI-8226 leukemia
[7] = test system: OVCAR-4 ovarian
[8] = test system: SR leukemia
[9] = test system: UACC-257 melanoma
[10] = test system: OVCAR-3 ovarian
[11] = test system: CCRF-CEM leukemia
[12] = test system: A549 NSCLC
[13] = test system: HCT-15 colon
[14] = test system: SK-OV-3 ovarian
[15] = test system: UO-31 renal
[16] = test system: EKVX NSCLC
[17] = test system: HS 578T breast
[18] = test system: IGROV1 ovarian
[19] = test system: MCF7 breast
[20] = test system: BT-549 breast
[21] = test system: 786-0 renal
[22] = test system: SN12C renal
[23] = test system: T-47D breast
[24] = test system: TK-10 renal
[25] = test system: SF-268 CNS
[26] = test system: K-562 leukemia
[27] = test system: ACHN renal
[28] = test system: HOP-92 NSCLC
[29] = test system: NCI-H23 lung
[30] = test system: SNB-19 CNS
[31] = test system: CAKI-1 renal
[32] = test system: NCI-H322M lung
[33] = test system: PC-3 prostate
[34] = test system: OVCAR-8 ovarian
[35] = test system: HT29 colon
[36] = test system: LOX IMVI melanoma
[37] = test system: HCT-116 colon
[38] = test system: MDA-MB-468 breast
[39] = test system: NCI-H522 lung
[40] = test system: COLO 205 colon
[41] = test system: NCI/ADR-RES ovarian
[42] = test system: SK-MEL-5 melanoma
[43] = test system: RXF 393 renal
[44] = test system: A498 renal
[45] = test system: NCI-H460 NSCLC
[46] = test system: M14 melanoma
[47] = test system: MDA-MB-435 melanoma
[48] = test system: SF-295 CNS
[49] = test system: DU-145 prostate
[50] = test system: SK-MEL-28 melanoma
[51] = test system: SW-620 colon
[52] = test system: MALME-3M melanoma
[53] = test system: HOP-62 NSCLC
[54] = test system: MOLT-4 leukemia
[55] = test system: HCC-2998 colon
[56] = test system: SNB-75 CNS
[57] = test system: KM12 colon
[58] = test system: SF-539 CNS

CN(C)C(=O)[C@H](O)[C@H](Cc1ccccc1)NC(=O)c1cc2cc(Cl)ccc2[nH]1
GI50 [1]: 23.1 µM
TGI [1]: 57.5 µM
GI50 [2]: 27 µM
TGI [2]: > 100 µM
GI50 [3]: 16.6 µM
TGI [3]: 30.5 µM
GI50 [4]: 32.7 µM
TGI [4]: 96.8 µM
GI50 [5]: 18.4 µM
TGI [5]: 41 µM
GI50 [6]: 13.3 µM
TGI [6]: 26.3 µM
GI50 [7]: 32 µM
TGI [7]: 89.9 µM
GI50 [8]: 19.5 µM
TGI [8]: 33.7 µM
GI50 [9]: 20.5 µM
TGI [9]: 37 µM
GI50 [10]: 16.5 µM
TGI [10]: 31.5 µM
GI50 [11]: 17.9 µM
TGI [11]: 32.7 µM
GI50 [12]: 27.3 µM
TGI [12]: 77 µM
GI50 [13]: 27.5 µM
TGI [13]: 74.7 µM
GI50 [14]: 32.9 µM
TGI [14]: > 100 µM
GI50 [15]: 31.1 µM
TGI [15]: 92 µM
GI50 [16]: 32.7 µM
TGI [16]: 97.3 µM
GI50 [17]: 25.6 µM
TGI [17]: 59.3 µM
GI50 [18]: 25.8 µM
TGI [18]: 64.8 µM
GI50 [19]: 17.8 µM
TGI [19]: 43 µM
GI50 [20]: 20.5 µM
TGI [20]: 47.8 µM
GI50 [21]: 20.5 µM
TGI [21]: 51.1 µM
GI50 [22]: 25.9 µM
TGI [22]: 77 µM
GI50 [23]: 26.9 µM
TGI [23]: 99.6 µM
GI50 [24]: 25.1 µM
TGI [24]: 67.9 µM
GI50 [25]: 22.2 µM
TGI [25]: 50.2 µM
GI50 [26]: 20.2 µM
TGI [26]: 44.9 µM
GI50 [27]: 28.4 µM
TGI [27]: 74.3 µM
GI50 [28]: 26.9 µM
TGI [28]: 65.8 µM
GI50 [29]: 28.1 µM
TGI [29]: 77.5 µM
GI50 [30]: 34.8 µM
TGI [30]: > 100 µM
GI50 [31]: 25.1 µM
TGI [31]: 77.8 µM
GI50 [32]: 28.1 µM
TGI [32]: 67.7 µM
GI50 [33]: 21.3 µM
TGI [33]: 46.7 µM
GI50 [34]: 36.4 µM
TGI [34]: > 100 µM
GI50 [35]: 21.8 µM
TGI [35]: 49.1 µM
GI50 [36]: 20.3 µM
TGI [36]: 36.1 µM
GI50 [37]: 22 µM
TGI [37]: 66.5 µM
GI50 [38]: 19.1 µM
TGI [38]: 36.1 µM
GI50 [39]: 22.6 µM
TGI [39]: 58.2 µM
GI50 [40]: 41.3 µM
TGI [40]: > 100 µM
GI50 [41]: 27.3 µM
TGI [41]: 70.6 µM
GI50 [42]: 15.6 µM
TGI [42]: 29.4 µM
GI50 [43]: 20.7 µM
TGI [43]: 54.8 µM
GI50 [44]: 26.7 µM
TGI [44]: 61 µM
GI50 [45]: 19.2 µM
TGI [45]: 36.2 µM
GI50 [46]: 23.4 µM
TGI [46]: 55.6 µM
GI50 [47]: 38.3 µM
TGI [47]: > 100 µM
GI50 [48]: 21.8 µM
TGI [48]: 44.2 µM
GI50 [49]: 30.7 µM
TGI [49]: 91.7 µM
GI50 [50]: 31.2 µM
TGI [50]: 88.4 µM
GI50 [51]: 25.3 µM
TGI [51]: 57.1 µM
GI50 [52]: 21.2 µM
TGI [52]: 55.4 µM
GI50 [53]: 22.6 µM
TGI [53]: 51.7 µM
GI50 [54]: 14.4 µM
TGI [54]: 27.7 µM
GI50 [55]: 15.4 µM
TGI [55]: 31.8 µM
GI50 [56]: 31.2 µM
TGI [56]: > 100 µM
GI50 [57]: 20.8 µM
TGI [57]: 50.9 µM
GI50 [58]: 28.3 µM
TGI [58]: 72.3 µM
